Assay results from the NIST ThermoML archive (doi:10.1021/acs.jced.9b00525).
± gives the expanded uncertainty stated by the source.

Settings: Surface laser light scattering (SLLS); for viscosity: Liquid

Row | Compound | surface tension liquid-gas (293.15 K) [mN/m] | viscosity (293.15 K) [mPa·s] | surface tension liquid-gas (303.15 K) [mN/m] | viscosity (303.15 K) [mPa·s] | surface tension liquid-gas (313.15 K) [mN/m] | viscosity (313.15 K) [mPa·s] | surface tension liquid-gas (323.15 K) [mN/m] | viscosity (323.15 K) [mPa·s] | surface tension liquid-gas (348.15 K) [mN/m] | viscosity (348.15 K) [mPa·s] | surface tension liquid-gas (373.15 K) [mN/m] | viscosity (373.15 K) [mPa·s] | surface tension liquid-gas (398.15 K) [mN/m] | viscosity (398.15 K) [mPa·s] | surface tension liquid-gas (423.15 K) [mN/m] | viscosity (423.15 K) [mPa·s] | surface tension liquid-gas (448.15 K) [mN/m] | viscosity (448.15 K) [mPa·s] | surface tension liquid-gas (473.15 K) [mN/m] | viscosity (473.15 K) [mPa·s] | further results
1 | CCCCCCCCCC [decane] | 23.05 ± 0.57 | 0.9005 ± 0.029 | 22.39 ± 0.48 | 0.79 ± 0.026 | 21.43 ± 0.46 | 0.6924 ± 0.025 | 20.61 ± 0.44 | 0.6091 ± 0.022 | 18.75 ± 0.39 | 0.4636 ± 0.019 | 16.52 ± 0.36 | 0.3614 ± 0.016 | 14.38 ± 0.31 | 0.2895 ± 0.015 | 12.4 ± 0.32 | 0.2403 ± 0.013 | 10.29 ± 0.22 | 0.1978 ± 0.012 | 8.52 ± 0.23 | 0.1677 ± 0.012 | surface tension liquid-gas (283.15 K): 23.94 ± 0.52 mN/m; viscosity (283.15 K): 1.077 ± 0.035 mPa·s; surface tension liquid-gas (498.15 K): 6.58 ± 0.16 mN/m; viscosity (498.15 K): 0.1366 ± 0.011 mPa·s; surface tension liquid-gas (523.15 K): 4.97 ± 0.12 mN/m; viscosity (523.15 K): 0.1138 ± 0.01 mPa·s; surface tension liquid-gas (548.15 K): 3.43 ± 0.1 mN/m; viscosity (548.15 K): 0.0974 ± 0.01 mPa·s; surface tension liquid-gas (573.15 K): 1.94 ± 0.09 mN/m; viscosity (573.15 K): 0.0762 ± 0.0098 mPa·s
2 | CCCCCCCCCCCCCCCC [hexadecane] | 27.38 ± 0.64 | 3.486 ± 0.1 | 26.6 ± 0.7 | 2.772 ± 0.095 | 25.56 ± 0.31 | 2.261 ± 0.081 | 24.28 ± 0.41 | 1.84 ± 0.061 | 22.19 ± 0.31 | 1.236 ± 0.047 | 20.31 ± 0.23 | 0.8927 ± 0.03 | 18.54 ± 0.14 | 0.6788 ± 0.024 | 16.69 ± 0.25 | 0.5351 ± 0.02 | 15.09 ± 0.14 | 0.4256 ± 0.018 | 13.26 ± 0.21 | 0.344 ± 0.016 | surface tension liquid-gas (498.15 K): 11.46 ± 0.19 mN/m; viscosity (498.15 K): 0.2862 ± 0.015 mPa·s; surface tension liquid-gas (523.15 K): 9.72 ± 0.28 mN/m; viscosity (523.15 K): 0.236 ± 0.013 mPa·s; surface tension liquid-gas (548.15 K): 8.25 ± 0.22 mN/m; viscosity (548.15 K): 0.1937 ± 0.013 mPa·s; surface tension liquid-gas (573.15 K): 7 ± 0.29 mN/m; viscosity (573.15 K): 0.1705 ± 0.012 mPa·s
3 | CCCCCC [hexane] | 18.22 ± 0.17 | 0.3127 ± 0.015 | 17.34 ± 0.19 | 0.2809 ± 0.014 | 16.22 ± 0.21 | 0.2546 ± 0.014 | 15.31 ± 0.14 | 0.234 ± 0.013 | 12.94 ± 0.12 | 0.1905 ± 0.012 | 10.53 ± 0.1 | 0.155 ± 0.011 | 8.21 ± 0.08 | 0.1268 ± 0.011 | 5.98 ± 0.06 | 0.1026 ± 0.01 | 3.75 ± 0.07 | 0.0837 ± 0.0097 | 1.89 ± 0.03 | 0.0655 ± 0.0093 | surface tension liquid-gas (283.15 K): 19.28 ± 0.22 mN/m; viscosity (283.15 K): 0.3495 ± 0.016 mPa·s
4 | CCCCCCCC [octane] | 21.31 ± 0.24 | 0.5523 ± 0.021 | 20.53 ± 0.23 | 0.4828 ± 0.019 | 19.45 ± 0.22 | 0.432 ± 0.018 | 18.64 ± 0.21 | 0.387 ± 0.017 | 16.37 ± 0.21 | 0.3079 ± 0.015 | 14 ± 0.14 | 0.2487 ± 0.014 | 11.9 ± 0.12 | 0.2028 ± 0.013 | 9.81 ± 0.15 | 0.1665 ± 0.012 | 7.88 ± 0.07 | 0.1393 ± 0.011 | 5.82 ± 0.1 | 0.1168 ± 0.01 | surface tension liquid-gas (283.15 K): 22.25 ± 0.19 mN/m; viscosity (283.15 K): 0.6247 ± 0.023 mPa·s; surface tension liquid-gas (498.15 K): 4 ± 0.13 mN/m; viscosity (498.15 K): 0.0947 ± 0.01 mPa·s; surface tension liquid-gas (523.15 K): 2.32 ± 0.06 mN/m; viscosity (523.15 K): 0.0755 ± 0.0095 mPa·s
